Assay results: article PMC3953502 (ACS chemical biology, 2013)

Legend:
ML-IAP = biological target: T1, ML-IAP (Homo sapiens, UniProt Q96CA5); assay: Fluorescence polarization competition assay, ML-IAP BIR; type: binding
T1 sequence (Q96CA5 63-179 limits assumed): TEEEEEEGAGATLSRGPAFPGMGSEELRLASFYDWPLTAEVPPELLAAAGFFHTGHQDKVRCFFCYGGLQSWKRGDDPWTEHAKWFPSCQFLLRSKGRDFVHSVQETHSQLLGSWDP

Ovarian Cancer Cells = details: 50 ng/mL TRAIL; cited from earlier work
[1] = system: MDA-MB-231 breast adenocarcinoma cells; assay: MDA-MB-231 cell viability, sensitization to TRAIL; type: cell-based; details: MDA-MB-231 cells, TRAIL alone at maximum dose of 100 ng/mL

Molecule: CN[C@@H](C)C(=O)N[C@H](C(=O)N1CCC[C@H]1C(=O)Nc1snnc1-c1ccccc1)C1CCCCC1 [GDC-0152]
- Ki (ML-IAP): 41 nM

Molecule: CN[C@@H](C)C(=O)N[C@H](C(=O)N1CC[C@H]2CCN(CCc3ccccc3)C[C@H]21)C1CCCCC1 [LBW242]
- increase in LBW242-induced cell death with addition of TRAIL (Ovarian Cancer Cells): 2- to 3 fold

B1: TRAIL: Tumor necrosis factor-related apoptosis-inducing ligand, member of the TNF family of cytokines (protein, UniProt P50591 1-281, looked up)
Tumor necrosis factor ligand …: MAMMEVQGGPSLGQTCVLIVIFTVLLQSLCVAVTYVYFTNELKQMQDKYSKSGIACFLKEDDSYWDPNDEESMNSPCWQVKWQLRQLVRKMILRTSEETISTVQEKQQNISPLVRERGPQRVAAHITGTRGRSNTLSSPNSKNEKALGRKINSWESSRSGHSFLSNLHLRNGELVIHEKGFYYIYSQTYFRFQEEIKENTKNDKQMVQYIYKYTSYPDPILLMKSARNSCWSKDAEYGLYSIYQGGIFELKENDRIFVSVTNEHLIDMDHEASFFGAFLVG
- cells undergone cell death [1]: 30%
